# From ChEMBL document CHEMBL5500371, “Arginine and tryptophan-rich dendritic antimicrobial peptides that disrupt membranes for bacterial infection in vivo” (Eur J Med Chem, 2024)
# Where a SMILES comes first, the peptide text is derived from it. Side-chain parts run from the residue outwards.
# Columns and labels:
# Erythrocyte = test: Hemolytic activity in mouse erythrocytes assessed as 10% hemolysis incubated for 1 hr by absorbance based analysis; format: toxicity, cell-based
# Bacillus subtilis = test: Antibacterial activity against Bacillus subtilis ATCC 23857 assessed as inhibition of bacterial growth incubated for 20 hrs by broth microdilution method; format: functional
# Pseudomonas aeruginosa = test: Antibacterial activity against Pseudomonas aeruginosa ATCC 27853 assessed as inhibition of bacterial growth incubated for 20 hrs by broth microdilution method; format: functional
# Acinetobacter baumannii = test: Antibacterial activity against Acinetobacter baumannii ATCC 19606 assessed as inhibition of bacterial growth incubated for 20 hrs by broth microdilution method; format: functional
# [1] = Cytotoxicity against HEK293T cells assessed as cell death measured after 1 hr by resazurin dye based analysis; format: toxicity, HEK-293T; conditions: human, HEK293T cells
# Klebsiella pneumoniae = test: Antibacterial activity against Klebsiella pneumoniae ATCC 700603 assessed as inhibition of bacterial growth incubated for 20 hrs by broth microdilution method; format: functional
# Escherichia coli = test: Antibacterial activity against Escherichia coli ATCC 25922 assessed as inhibition of bacterial growth incubated for 20 hrs by broth microdilution method; format: functional
# Staphylococcus aureus = test: Antibacterial activity against Staphylococcus aureus ATCC 25923 assessed as inhibition of bacterial growth incubated for 20 hrs by broth microdilution method; format: functional
Compound,MHC10 (Erythrocyte),MIC (Bacillus subtilis),MIC (Pseudomonas aeruginosa),MIC (Acinetobacter baumannii),CC50 at 1 h [1],MIC (Klebsiella pneumoniae),MIC (Escherichia coli),MIC (Staphylococcus aureus)
N=C(N)NCCC[C@H](N)C(=O)NCCCC[C@H](NC(=O)[C@@H](N)CCCNC(=N)N)C(=O)N[C@@H](Cc1c[nH]c2ccccc12)C(=O)N[C@@H](Cc1c[nH]c2ccccc12)C(N)=O (H-RK(Arg)WW-NH2),> 256 µM,128 µM,> 128 µM,> 128 µM,> 128 µM,> 128 µM,> 128 µM,> 128 µM
N=C(N)NCCC[C@H](NC(=O)[C@H](CCCNC(=N)N)NC(=O)[C@H](CCCNC(=N)N)NC(=O)[C@H](CCCNC(=N)N)NC(=O)[C@H](CCCNC(=N)N)NC(=O)[C@H](CCCNC(=N)N)NC(=O)[C@H](CCCNC(=N)N)NC(=O)[C@H](CCCCNC(=O)[C@H](Cc1c[nH]c2ccccc12)NC(=O)[C@H](Cc1c[nH]c2ccccc12)NC(=O)[C@@H](N)Cc1c[nH]c2ccccc12)NC(=O)[C@H](Cc1c[nH]c2ccccc12)NC(=O)[C@H](Cc1c[nH]c2ccccc12)NC(=O)[C@@H](N)Cc1c[nH]c2ccccc12)C(N)=O,17.53 µM,16 µM,16 µM,32 µM,41.9 µM,64 µM,32 µM,16 µM
H-RRRRKWWWWW-NH2,45.69 µM,4 µM,32 µM,32 µM,63.6 µM,16 µM,8 µM,8 µM
N=C(N)NCCC[C@H](NC(=O)[C@H](CCCNC(=N)N)NC(=O)[C@@H](N)CCCNC(=N)N)C(=O)NCCCC[C@H](NC(=O)[C@H](CCCNC(=N)N)NC(=O)[C@H](CCCNC(=N)N)NC(=O)[C@@H](N)CCCNC(=N)N)C(=O)N[C@@H](Cc1c[nH]c2ccccc12)C(=O)N[C@@H](Cc1c[nH]c2ccccc12)C(=O)N[C@@H](Cc1c[nH]c2ccccc12)C(=O)N[C@@H](Cc1c[nH]c2ccccc12)C(=O)N[C@@H](Cc1c[nH]c2ccccc12)C(N)=O,91.08 µM,8 µM,16 µM,32 µM,41.4 µM,16 µM,16 µM,16 µM
N=C(N)NCCC[C@H](NC(=O)[C@H](CCCNC(=N)N)NC(=O)[C@@H](N)CCCNC(=N)N)C(=O)NCCCC[C@H](NC(=O)[C@H](CCCNC(=N)N)NC(=O)[C@H](CCCNC(=N)N)NC(=O)[C@@H](N)CCCNC(=N)N)C(=O)N[C@@H](Cc1c[nH]c2ccccc12)C(=O)N[C@@H](Cc1c[nH]c2ccccc12)C(=O)N[C@@H](Cc1c[nH]c2ccccc12)C(=O)N[C@@H](Cc1c[nH]c2ccccc12)C(=O)N[C@@H](Cc1c[nH]c2ccccc12)C(=O)N[C@@H](Cc1c[nH]c2ccccc12)C(N)=O (H-RRRK([Arg-Arg-Arg])WWWWWW-NH2),22.12 µM,16 µM,32 µM,32 µM,34 µM,32 µM,32 µM,32 µM
N=C(N)NCCC[C@H](NC(=O)[C@H](CCCNC(=N)N)NC(=O)[C@H](CCCCNC(=O)[C@@H](N)Cc1c[nH]c2ccccc12)NC(=O)[C@@H](N)Cc1c[nH]c2ccccc12)C(N)=O (H-WK(Trp)RR-NH2),> 256 µM,> 128 µM,> 128 µM,> 128 µM,> 128 µM,> 128 µM,> 128 µM,> 128 µM
